{"source": "patent US20140179615A1", "about": "“Glutathione and Acetaminophen Composition and Preparation Method Thereof” (Hainan Weikang Pharmaceutical (Qianshan) Co., Ltd., priority 2012, published 2014)", "key": {"[1]": {"test_system": "healthy male Kunming mice", "assay": "Impact on liver damage in mice: serum AST and ALT activity after gavage", "type": "in vivo", "conditions": "gavage 0.5 g/kg, 4 d at intervals of 24 h, mean ± spread, 10 mice per group", "method": "1. Materials: healthy male Kunming mice (weight: 20-22 g)\nDivide 50 mice into 5 Groups: Control Group, Model Group, Embodiment Group 1, Embodiment Group 2 and Embodiment Group 3; 10 mice for each group. The mice are fed freely two days and fasted 16 h before the experiment. Experimental Treatment: the mice respectively of Control Group, Model Group, Embodiment Group 1, Embodiment Group 2 and Embodiment Group 3 are separately given normal saline, acetaminophen solution (0.5 g/kg), tablets (0.5 g/kg) made in Embodiment 1, oral solution (0.5 g/kg) made in Embodiment 2, and granules made in Embodiment 3 by gavage. The mice are treated continuously 4 d at intervals of 24 h. The mice of control group are given 1% sodium carboxymethylcellulose (0.15 g/kg) by gavage 1 h after last treatment and sacrificed by cervical dislocation after 24 h.\nPreparation of Blood Serum: take blood from mouse carotid artery, stand the blood, then make it centrifuged at 3,000 r/min for 15 min to separate out the serum, and put the serum in refrigerator (−20° C.) for storage.\nMeasuring Indicator and Method: take the prepared serum on Sigma95308 automatic biochemistry analyzer to determine the activity of aspartate transaminase (AST/GOT) and alanine aminotransferase (ALT/GPT).\nImpact of Embodiments on Liver Damage"}, "[2]": {"conditions": "after taken, cited from earlier work"}}, "data": [{"smiles": "CC(=O)Nc1ccc(O)cc1", "note": "[Model Group, Acetaminophen]", "values": [{"measurement": "ALT (alanine aminotransferase, ALT/GPT) activity in serum", "setting": "[1]", "value": "87.8 ± 9.5", "unit": "IU · L^−1"}, {"measurement": "AST (aspartate transaminase, AST/GOT) activity in serum", "setting": "[1]", "value": "245.6 ± 18.3", "unit": "IU · L^−1"}, {"measurement": "Share combined with glucuronide", "setting": "[2]; liver metabolism", "value": 60, "unit": "%"}, {"measurement": "Share combined with sulfuric acid", "setting": "[2]; liver metabolism", "value": 30, "unit": "%"}, {"measurement": "Share metabolized by liver cytochrome P450 oxidase system to NAPQI", "setting": "[2]", "value": "4%-5"}, {"measurement": "Share of acetaminophen metabolized by the liver", "setting": "[2]", "value": 90, "unit": "%"}]}]}
